Measured values as given in ChEMBL document CHEMBL5346881 (Eur J Med Chem, 2023).

Assays:
SK-OV-3 [1] = assay: Antiproliferative activity against human SK-OV-3 cells assessed inhibition of cell growth incubated for 48 hrs by MTT assay; type: functional, cell-based; conditions: SK-OV-3, 48 h
[2] = Antiproliferative activity against human UWB1289 cells harboring BRCA1 assessed inhibition of cell growth incubated for 48 hrs by MTT assay; type: functional, cell-based; conditions: UWB1289, 48 h
PC-3 [3] = assay: Antiproliferative activity against human PC-3 cells assessed inhibition of cell growth incubated for 48 hrs by MTT assay; type: functional, cell-based; conditions: PC-3, 48 h
MCF7 [4] = assay: Antiproliferative activity against human MCF7 cells assessed inhibition of cell growth incubated for 48 hrs by MTT assay; type: functional, cell-based; conditions: MCF7, 48 h
MRC5 [5] = assay: Antiproliferative activity against human MRC5 cells assessed inhibition of cell growth incubated for 48 hrs by MTT assay; type: functional, cell-based; conditions: MRC5, 48 h
SK-OV-3 [6] = assay: Growth inhibition of human SK-OV-3 cells incubated for 48 hrs by MTT assay; type: functional
[7] = Growth inhibition of human UWB1289 cells harboring BRCA1 incubated for 48 hrs by MTT assay; type: functional
PC-3 [8] = assay: Growth inhibition of human PC-3 cells incubated for 48 hrs by MTT assay; type: functional
MCF7 [9] = assay: Growth inhibition of human MCF7 cells incubated for 48 hrs by MTT assay; type: functional
MRC5 [10] = assay: Growth inhibition of human MRC5 cells incubated for 48 hrs by MTT assay; type: functional
[11] = Acute toxicity in ip dosed CB17 SCID mouse assessed as lethal dose; type: organism-based; parameters: LD20: unit not given here; conditions: in vivo
SK-OV-3 [12] = assay: Antitumor activity against human SK-OV-3 cells xenografted in CB17 SCID mouse assessed as reduction in tumor volume at 36 mg/kg, ip administered as single dose measured after 11 days (reference value: 790 +/- 65.6 mm3); type: functional; conditions: time 11 day
SK-OV-3 [13] = assay: Antitumor activity against human SK-OV-3 cells xenografted in CB17 SCID mouse assessed as tumor inhibition at 36 mg/kg, ip administered as single dose measured after 11 days; type: functional; conditions: SK-OV-3, 264 h, time 11 day, read-out: TGI
PC-3 [14] = assay: Antitumor activity against human PC-3 cells xenografted in CB17 SCID mouse assessed as reduction in tumor volume at 36 mg/kg, ip administered as single dose measured after 21 days (reference value: 683 +/- 47.3 mm3); type: functional; conditions: time 21 day
PC-3 [15] = assay: Antitumor activity against human PC-3 cells xenografted in CB17 SCID mouse assessed as tumor inhibition at 36 mg/kg, ip administered as single dose measured after 21 days; type: functional; conditions: PC-3, 504 h, time 21 day, read-out: TGI
P388 = assay: Antitumor activity against mouse P388 cells xenografted in CB17 SCID mouse assessed as T/C ratio at 140 uM, ip administered as single dose measured after 17 days; type: functional; conditions: time 17 day
HT-29 = assay: Antiproliferative activity against human HT-29 cells assessed inhibition of cell growth incubated for 48 hrs by MTT assay; type: functional, cell-based; conditions: HT-29, 48 h
LS174T = assay: Antiproliferative activity against human LS174T cells assessed inhibition of cell growth incubated for 48 hrs by MTT assay; type: functional, cell-based
LoVo = assay: Antiproliferative activity against human LoVo cells assessed inhibition of cell growth incubated for 48 hrs by MTT assay; type: functional, cell-based
MDA-MB-453 = assay: Antiproliferative activity against human MDA-MB-453 cells assessed inhibition of cell growth incubated for 48 hrs by MTT assay; type: functional, cell-based; conditions: MDA-MB-453, 48 h
MDA-MB-231 = assay: Antiproliferative activity against human MDA-MB-231 cells assessed inhibition of cell growth incubated for 48 hrs by MTT assay; type: functional, cell-based; conditions: MDA-MB-231, 48 h
HeLa = assay: Antiproliferative activity against human HeLa cells assessed inhibition of cell growth incubated for 48 hrs by MTT assay; type: functional, cell-based
HuP-T3 = assay: Antiproliferative activity against human HuP-T3 cells assessed inhibition of cell growth incubated for 48 hrs by MTT assay; type: functional, cell-based; conditions: HuP-T3, 48 h
SK-OV-3 [16] = assay: Antitumor activity against human SK-OV-3 cells xenografted in CB17 SCID mouse assessed as tumor inhibition at 140 uM, ip administered as single dose measured after 17 days; type: functional; conditions: SK-OV-3, 408 h, time 17 day, read-out: TGI

Compound	IC50 (SK-OV-3 [1]) [µM]	IC50 [2] [µM]	IC50 (PC-3 [3]) [µM]	IC50 (MCF7 [4]) [µM]	IC50 (MRC5 [5]) [µM]	GI50 (SK-OV-3 [6]) [µM]	TGI (SK-OV-3 [6]) [µM]	GI50 [7] [µM]	TGI [7] [µM]	GI50 (PC-3 [8]) [µM]	TGI (PC-3 [8]) [µM]	GI50 (MCF7 [9]) [µM]	TGI (MCF7 [9]) [µM]	GI50 (MRC5 [10]) [µM]	TGI (MRC5 [10]) [µM]	LD20 ([11]; ip)	LD50 ([11]; ip)	T/C (P388)	IC50 (HT-29) [µM]	IC50 (LS174T) [µM]	other results
C[C@]12CC(=O)[C@H]3[C@@H](CCC4=CC(=O)NCC[C@@]43C)[C@@H]1CC[C@@H]2OC(=O)[C@@H](O)COc1ccc(N(CCCl)CCCl)cc1	36	56	28	21	68	3.4	12	5	13.2	4	9	6	11	12	44						
C[C@]12CC[C@H]3[C@@H](CCC4=CC(=O)NCC[C@@]43C)[C@@H]1CC[C@@H]2OC(=O)[C@@H](O)COc1ccc(N(CCCl)CCCl)cc1	9	51	11	8	22.5	1	3.5	1.2	4	2	4	1.5	3.8	3	10						LD50 ([11]; CB17 SCID, read-out: LD50): 28 mg/kg; LD10 ([11]; ip): 36 mg/kg; Activity (SK-OV-3 [12]): 192 mm3; inhibition in vivo at 36 mg/kg (SK-OV-3 [13]): 95%; Activity (PC-3 [14]): 181 mm3; inhibition in vivo at 36 mg/kg (PC-3 [15]): 85.2%
CC(=O)O[C@@H](COc1ccc(N(CCCl)CCCl)cc1)C(=O)O[C@H]1CC[C@H]2[C@@H]3CCC4=CC(=O)NCC[C@]4(C)[C@H]3C(=O)C[C@]12C	33	12	16	12	52	3.8	9	3	7	8.2	9	2.2	7	27	38						
CC(=O)O[C@@H](COc1ccc(N(CCCl)CCCl)cc1)C(=O)O[C@H]1CC[C@H]2[C@@H]3CCC4=CC(=O)NCC[C@]4(C)[C@H]3CC[C@]12C	3.9	6.3	9	4.3	21.5	0.8	2.2	0.7	2.2	1.7	3.9	1.5	3.4	3.9	15.3						
C[C@]12CC[C@H]3[C@@H](CCC4=CC(=O)NCC[C@@]43C)[C@@H]1CC[C@@H]2OC(=O)[C@@H](N)COc1ccc(N(CCCl)CCCl)cc1	1	1														12.5	21	410.3	1	1	IC50 (LoVo): 1 µM; IC50 (MDA-MB-453): 1 µM; IC50 (MDA-MB-231): 1 µM; IC50 (HeLa): 1 µM; IC50 (HuP-T3): 1 µM
CC(=O)O[C@@H](COc1ccc(N(CCCl)CCCl)cc1)C(=O)Oc1ccc2c(c1)CC[C@@H]1[C@@H]2CC[C@]2(C)NC(=O)CC[C@@H]12	22	11.9	15	10	19	4	9	3	8.8	4.5	8.9	2	5.5	6.5	10						
CC(=O)O[C@@H](COc1ccc(N(CCCl)CCCl)cc1)C(=O)O	> 100	> 100	> 100	> 100	> 100	> 100	> 100	> 100	> 100	> 100	> 100	80	> 100	50	> 100						
C[C@]12CC(=O)[C@H]3[C@@H](CCC4=CC(=O)NCC[C@@]43C)[C@@H]1CC[C@@H]2OC(=O)CCOc1ccc(N(CCCl)CCCl)cc1	65	65														140	110	356	65	65	IC50 (LoVo): 65 µM; IC50 (MDA-MB-453): 65 µM; IC50 (MDA-MB-231): 65 µM; IC50 (HeLa): 65 µM; IC50 (HuP-T3): 65 µM
C[C@]12CC(=O)[C@H]3[C@@H](CCC4=CC(=O)NCC[C@@]43C)[C@@H]1CC[C@@H]2OC(=O)[C@@H](N)COc1ccc(N(CCCl)CCCl)cc1	4	4														10	14	109.9	4	4	IC50 (LoVo): 4 µM; IC50 (MDA-MB-453): 4 µM; IC50 (MDA-MB-231): 4 µM; IC50 (HeLa): 4 µM; IC50 (HuP-T3): 4 µM; inhibition in vivo at 140 µM (SK-OV-3 [16]): 110%
